From US20190352288A1, “MATRIX METALLOPROTEINASE (MMP) INHIBITORS AND METHODS OF USE THEREOF” (Foresee Pharmaceuticals Co., Ltd., priority 2018, published 2019) come the findings set out here.

SMILES strings stand for the structures.

What all share (assay type): biochemical
Details in all cases: Table 2 selectivity profile

One assay deals with recombinant human MMP-3 (Homo sapiens, UniProt P08254). In words: MMP selectivity assay, MMP-3. The procedure:
(§1) The inhibitory effect of compounds on the rate of cleaving fluorogenic MMP substrate (Enzo, BML-P128) by recombinant human MMP-12 catalytic domain (Enzo, BML-SE138) was carried out by methods known in the art. Briefly, to each well of a 96-well black opaque plate, all the reagents were sequentially added by pipetting, and the final reaction contained 4 nM of recombinant human MMP-12 catalytic domain, 4 μM of fluorogenic MMP substrate, and various concentrations (0.15 nM to 10,000 nM) of tested compound dilutions in HEPES buffer (pH 7.5) containing 10 mM of CaCl2), 0.01% Brij® 35 (polyoxyethylene (23) lauryl ether), and 0.1 mg/ml of BSA.
(§2) The enzyme and compounds were pre-incubated on a shaker to mix in wells. After an hour of mixing, fluorogenic substrate was added to each well. Reaction without enzyme was used as a blank control in the plate. The plate was then fed into a plate reader to measure fluorescence intensity at Excitation/Emission wavelengths of 340 nm/440 nm every 10 mins for at least 1 hour at 37° C. The IC50 of each compound in MMP-12 inhibition was determined by using a readout obtained at time point 30 minutes.
(§3) The MMP selectivity assay was performed by using other recombinant human MMPs, including MMP-1, MMP-2, MMP-3, MMP-7, MMP-8, MMP-9, MMP-10, MMP-13, and MMP-14. The IC50 of the compounds for the other recombinant human MMPs was determined as described above in Example 1, and are shown in Table 2.

In the next assay the target is recombinant human MMP-9 (Homo sapiens, UniProt P14780). In words: MMP selectivity assay, MMP-9. The procedure:
as §1, §2, §3

For a further assay, the target named is recombinant human MMP-14 (Homo sapiens, UniProt P50281). In words: MMP selectivity assay, MMP-14. The procedure:
as §1, §2, §3

For the next assay, the target named is T1, recombinant human MMP-2 (Homo sapiens, UniProt P08253).
T1 sequence (P08253 110-660): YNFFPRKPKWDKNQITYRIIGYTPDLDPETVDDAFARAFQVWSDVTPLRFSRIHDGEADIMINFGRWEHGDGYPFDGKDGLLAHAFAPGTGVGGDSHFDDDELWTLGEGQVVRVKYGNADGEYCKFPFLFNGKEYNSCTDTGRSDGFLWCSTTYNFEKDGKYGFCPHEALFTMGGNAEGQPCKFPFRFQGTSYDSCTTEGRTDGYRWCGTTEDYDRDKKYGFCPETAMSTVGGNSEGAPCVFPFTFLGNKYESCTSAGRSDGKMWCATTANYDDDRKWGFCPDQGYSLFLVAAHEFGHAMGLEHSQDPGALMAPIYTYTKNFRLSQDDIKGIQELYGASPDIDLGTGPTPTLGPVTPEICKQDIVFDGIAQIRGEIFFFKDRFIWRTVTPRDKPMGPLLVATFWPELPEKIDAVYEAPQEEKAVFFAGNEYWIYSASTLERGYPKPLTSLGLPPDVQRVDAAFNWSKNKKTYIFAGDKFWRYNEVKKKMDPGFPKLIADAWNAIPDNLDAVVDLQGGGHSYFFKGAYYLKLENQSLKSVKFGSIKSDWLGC
In words: MMP selectivity assay, MMP-2. On the procedure: as §1, §2, §3

A further assay deals with recombinant human MMP-10 (Homo sapiens, UniProt P09238). Briefly: MMP selectivity assay, MMP-10. The procedure:
as §1, §2, §3

recombinant human MMP-3, sequence (P08254 100-477): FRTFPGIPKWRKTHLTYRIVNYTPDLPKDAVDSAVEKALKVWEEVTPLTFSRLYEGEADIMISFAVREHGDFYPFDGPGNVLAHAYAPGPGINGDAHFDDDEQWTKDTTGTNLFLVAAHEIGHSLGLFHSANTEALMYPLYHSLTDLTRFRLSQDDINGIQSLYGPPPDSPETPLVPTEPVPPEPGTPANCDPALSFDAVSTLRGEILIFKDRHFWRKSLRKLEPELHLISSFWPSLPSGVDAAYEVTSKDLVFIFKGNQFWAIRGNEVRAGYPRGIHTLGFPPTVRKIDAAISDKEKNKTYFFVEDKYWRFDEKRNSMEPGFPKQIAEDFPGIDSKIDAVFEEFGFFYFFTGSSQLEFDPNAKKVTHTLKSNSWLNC
recombinant human MMP-9, sequence (P14780 94-707): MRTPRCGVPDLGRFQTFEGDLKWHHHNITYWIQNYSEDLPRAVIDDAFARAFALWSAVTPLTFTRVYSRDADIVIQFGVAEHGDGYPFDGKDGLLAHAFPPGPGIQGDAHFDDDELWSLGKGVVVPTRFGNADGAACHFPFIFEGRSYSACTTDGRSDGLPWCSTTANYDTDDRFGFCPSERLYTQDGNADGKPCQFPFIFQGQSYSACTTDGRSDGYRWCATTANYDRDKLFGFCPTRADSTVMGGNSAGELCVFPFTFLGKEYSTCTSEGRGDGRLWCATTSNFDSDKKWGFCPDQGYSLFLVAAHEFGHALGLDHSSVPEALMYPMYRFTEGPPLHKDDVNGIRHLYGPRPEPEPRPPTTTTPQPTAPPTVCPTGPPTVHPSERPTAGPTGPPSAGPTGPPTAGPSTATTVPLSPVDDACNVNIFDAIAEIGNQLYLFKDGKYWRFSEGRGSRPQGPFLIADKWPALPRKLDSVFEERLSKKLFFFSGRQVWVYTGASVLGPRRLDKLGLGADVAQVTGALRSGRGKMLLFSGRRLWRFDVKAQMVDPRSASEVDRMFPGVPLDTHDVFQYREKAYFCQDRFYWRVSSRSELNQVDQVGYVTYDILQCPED
recombinant human MMP-10, sequence (P09238 99-476): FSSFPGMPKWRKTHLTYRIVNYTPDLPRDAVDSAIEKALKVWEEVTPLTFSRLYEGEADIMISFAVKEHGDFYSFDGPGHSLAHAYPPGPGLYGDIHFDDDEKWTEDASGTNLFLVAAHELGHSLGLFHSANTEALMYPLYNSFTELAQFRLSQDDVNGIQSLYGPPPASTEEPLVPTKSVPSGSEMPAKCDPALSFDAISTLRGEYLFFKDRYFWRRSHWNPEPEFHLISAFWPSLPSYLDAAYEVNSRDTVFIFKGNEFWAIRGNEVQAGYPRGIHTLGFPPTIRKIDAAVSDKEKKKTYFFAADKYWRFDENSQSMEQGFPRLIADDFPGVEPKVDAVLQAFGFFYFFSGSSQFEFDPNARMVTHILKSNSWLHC

One may read the IC50 as the concentration at which inhibition is half-maximal. For `Cc1cc(COc2ccc(Sc3ccncc3C3NC(=O)NC3=O)cc2)ccn1` (centres unmarked) [PC-16], the IC50 is 1 to 10 µM on recombinant human MMP-3; 1 to 10 µM at recombinant human MMP-9; 1 to 10 µM on recombinant human MMP-14; 0.1 to 1 µM at recombinant human MMP-2; 1 to 10 µM on recombinant human MMP-10.
